The compounds below were run against T1, DAO from swine kidney (Sus scrofa, UniProt Q9TRC7) (assay: Inhibition of diaminoxidase (DAO), isotopic method with 14C-putrescine). Details: 30 minutes pre-incubation; 14C-putrescine 1 mM; mean ± s.e.
T1 construct: DAO from swine kidney, as obtained and purified by the Sigma; purchased Sigma (St. Louis); host or cells: swine kidney
T1 sequence (Q9TRC7 25-755): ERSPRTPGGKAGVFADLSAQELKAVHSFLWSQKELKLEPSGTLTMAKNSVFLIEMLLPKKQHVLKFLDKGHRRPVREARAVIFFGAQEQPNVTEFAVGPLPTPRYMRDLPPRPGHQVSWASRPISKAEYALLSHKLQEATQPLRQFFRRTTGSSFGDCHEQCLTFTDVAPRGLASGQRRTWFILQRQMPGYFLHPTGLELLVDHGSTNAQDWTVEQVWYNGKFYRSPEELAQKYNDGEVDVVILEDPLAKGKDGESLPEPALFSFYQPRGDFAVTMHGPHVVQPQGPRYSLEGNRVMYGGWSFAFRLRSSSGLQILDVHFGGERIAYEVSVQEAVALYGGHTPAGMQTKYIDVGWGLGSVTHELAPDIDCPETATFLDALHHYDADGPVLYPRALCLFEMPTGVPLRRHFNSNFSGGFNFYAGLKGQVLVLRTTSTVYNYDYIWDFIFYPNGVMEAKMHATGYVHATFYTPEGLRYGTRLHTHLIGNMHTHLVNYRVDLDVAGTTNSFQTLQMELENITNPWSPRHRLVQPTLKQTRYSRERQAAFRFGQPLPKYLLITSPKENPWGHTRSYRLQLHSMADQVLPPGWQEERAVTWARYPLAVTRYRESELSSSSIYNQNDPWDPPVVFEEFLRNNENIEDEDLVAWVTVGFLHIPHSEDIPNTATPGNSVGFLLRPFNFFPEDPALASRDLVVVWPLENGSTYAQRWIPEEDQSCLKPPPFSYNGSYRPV
Type: biochemical
Method: The quantitative determination of the diaminoxidases (DAO's) is performed by the isotopic method disclosed by J. Kusche, H. Richter, R. Hesterberg, J. Schmidt, W. Lorenz, (Agents and Actions, 3, 148-156 (1973)) employing ^14 C-putrescine as the substrate at the final concentration of 1 mM.
(§1) Pure BAO obtained from swine plasma by the procedure disclosed by F. Buffoni and H. Blaschko (Proc. Roy. Soc. B 161, 153 (1964)); DAO from swine kidney, as obtained and purified by the Sigma (St. Louis, Md., USA, 0.25 U/mg); purified LAO from swine aorta obtained by the procedure disclosed by F. Buffoni and L. Raimondi (Agents and Actions, 11, 38 (1981)). Rat liver mitochondria obtained by the procedure disclosed by G. W. Schneider and G. H. Hogeboon (J. Biol. Chem., 183, 123 (1950)) were employed as the source of MAO.
(§2) IC50 (M)=The molar concentration of the inhibitor that inhibits 50% of the enzyme activity at a saturating concentration of the substrate. Said concentration is calculated from curves obtained by pre-incubation of the compound for 30 minutes (at 6 different concentrations) with the enzyme before adding the substrate and determining the enzymic rate.
(§3) The repetition of the experiments allows to obtain the average values of the IC50 (M) as well as the relative standard errors.

SMILES | IC50 [µM]
COc1cccc(OC)c1CN.Cl [Example 7, 2,6-di-methoxybenzylamine hydrochloride] | 5600 ± 0.3
COCOc1cccc(OCOC)c1CN.Cl [Example 9, 2,6-bis(methoxymethoxy)benzylamine hydrochloride] | > 10000
CCOc1cccc(OCC)c1CN.Cl [Example 1, 2,6-diethoxybenzylamine hydrochloride] | 12500 ± 1
CCCc1cccc(CCC)c1CN.Cl [Example 12, 2,6-di-n-propylbenzylamine hydrochloride] | 1000
Cl.NCc1ccccc1O [Example 5, 2-hydroxybenzylamine hydrochloride] | 1000

The compounds below were run on Pure BAO obtained from swine plasma (assay: Inhibition type on BAO (Lineweaver-Burk)). Details: 1/v vs. 1/s, 5 substrate concentrations.
Type: biochemical
Design: key: competitive inhibition; nc: not competitive inhibition; mixed inhibition
Source text: as §1
The inhibition type was evaluated by studying the effect of the compound on the enzymic rate (v) at 5 different concentrations of the substrate (s) and plotting the results by the classical procedure as 1/v vs. 1/s according to Lineweaver-Burk.

SMILES | BAO: inhibition type
Cl.NCc1c(OCCO)cccc1OCCO [Example 13, 2,6-bis(hydroxyethoxy)benzylamine hydrochloride] | m
CCCOc1cccc(OCCC)c1CN.Cl [Example 2, 2,6-di(n-propoxy)benzylamine hydrochloride] | m
COc1cccc(OC)c1CN.Cl [Example 7, 2,6-di-methoxybenzylamine hydrochloride] | m
COCOc1cccc(OCOC)c1CN.Cl [Example 9, 2,6-bis(methoxymethoxy)benzylamine hydrochloride] | m
CCOc1cccc(OCC)c1CN.Cl [Example 1, 2,6-diethoxybenzylamine hydrochloride] | m
CCCc1cccc(CCC)c1CN.Cl [Example 12, 2,6-di-n-propylbenzylamine hydrochloride] | nc

What follows are compounds tested against T2, purified LAO from swine aorta (Sus scrofa, UniProt P45845) (assay: Inhibition of lysyloxidase (LAO), isotopic procedure with 3H-elastine). Details: 30 minutes pre-incubation; 3H-elastine 0.150 mg/ml.
T2 construct: purified LAO from swine aorta; from tissue; host or cells: swine aorta, purified by the procedure of Buffoni and Raimondi (1981)
T2 sequence (P45845 1-249): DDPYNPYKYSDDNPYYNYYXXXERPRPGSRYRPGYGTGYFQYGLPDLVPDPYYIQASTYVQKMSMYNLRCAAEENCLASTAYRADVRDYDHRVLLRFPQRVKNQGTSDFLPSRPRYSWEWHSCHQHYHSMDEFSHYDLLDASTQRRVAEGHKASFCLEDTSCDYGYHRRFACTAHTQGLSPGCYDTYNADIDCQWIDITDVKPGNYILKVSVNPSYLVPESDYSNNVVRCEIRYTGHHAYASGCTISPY
Type: biochemical
Method: The quantitative determination of lysyloxidase (LAO) is carried out by the isotopic procedure of […]. Biochem., 77, 141 (1977)) employing as the substrate ^3 […] prepared as disclosed by […], and G. R. Martin (Proc. Natl. Acad. Sci. USA 61, 708 (1968)) and isolated as disclosed by […]. Smith (Biochemistry, 8, 2940 (1969)). […] Pure BAO obtained from swine plasma by the procedure disclosed by F. Buffoni and H. Blaschko (Proc. Roy. Soc. B 161, 153 (1964)); DAO from swine kidney, as obtained and purified by the Sigma (St. Louis, Md., USA, 0.25 U/mg); purified LAO from swine aorta obtained by the procedure disclosed by F. Buffoni and L. Raimondi (Agents and Actions, 11, 38 (1981)). Rat liver mitochondria obtained by the procedure disclosed by G. W. Schneider and […]. Biol. Chem., 183, 123 (1950)) were employed as the source of MAO. IC50 (M)=The molar concentration of the inhibitor that inhibits 50% of the enzyme activity at a saturating concentration of the substrate. Said concentration is calculated from curves obtained by pre-incubation of the compound for 30 minutes (at 6 different concentrations) with the enzyme before adding the substrate and determining the enzymic rate. The repetition of the experiments allows to obtain the average values of the IC50 (M) as well as the relative standard errors.

SMILES | IC50 [µM]
COCOc1cccc(OCOC)c1CN.Cl [Example 9, 2,6-bis(methoxymethoxy)benzylamine hydrochloride] | > 1000
CCCc1cccc(CCC)c1CN.Cl [Example 12, 2,6-di-n-propylbenzylamine hydrochloride] | 1000

These compounds were tested on Pure BAO obtained from swine plasma (assay: Compound as the substrate of BAO (production of H2O2)). Details: 37° C., air.
Type: biochemical
Design: key: the compound is the substrate; ns: the compound is not the substrate
Method: (§4) The oxidation of the compound is estimated in all cases by measuring the production of H2 O2. Such operation is carried out within a temperature-controlled bath set at 37° C. and stirred, in the presence of air. The production-of H2 O2 is quantitatively determined by the method of H. P. Lehman, K. H. Schosinsky, M. F. Beeler (Clin. Chem., 20, 1564 (1974)).
as §1

SMILES | BAO: compound as the substrate
Cl.NCc1c(OCCO)cccc1OCCO [Example 13, 2,6-bis(hydroxyethoxy)benzylamine hydrochloride] | ns
CCCOc1cccc(OCCC)c1CN.Cl [Example 2, 2,6-di(n-propoxy)benzylamine hydrochloride] | ns
COc1cccc(OC)c1CN.Cl [Example 7, 2,6-di-methoxybenzylamine hydrochloride] | ns
COCOc1cccc(OCOC)c1CN.Cl [Example 9, 2,6-bis(methoxymethoxy)benzylamine hydrochloride] | s
CCOc1cccc(OCC)c1CN.Cl [Example 1, 2,6-diethoxybenzylamine hydrochloride] | ns
CCCc1cccc(CCC)c1CN.Cl [Example 12, 2,6-di-n-propylbenzylamine hydrochloride] | ns
Cl.NCc1ccccc1O [Example 5, 2-hydroxybenzylamine hydrochloride] | s

What follows are compounds tested on MAO (rat liver mitochondria) (assay: Inhibition of monoaminoxidases (MAO), isotopic procedure with 14C-beta-phenylethylamine). Details: 30 minutes pre-incubation; 14C-beta-phenylethylamine 1.7 mM; mean ± s.e.
Type: biochemical
Method: The quantitative determination of monoaminoxidases (MAO's) is carried out by the same procedure as the determination of BAO's, but ^14 C-beta-phenylethylamine is employed at the final concentration of 1.7 mM.
as §1, §2, §3

SMILES | IC50 [µM]
Cl.NCc1c(OCCO)cccc1OCCO [Example 13, 2,6-bis(hydroxyethoxy)benzylamine hydrochloride] | > 1000
CCCOc1cccc(OCCC)c1CN.Cl [Example 2, 2,6-di(n-propoxy)benzylamine hydrochloride] | > 1000
COc1cccc(OC)c1CN.Cl [Example 7, 2,6-di-methoxybenzylamine hydrochloride] | 190
COCOc1cccc(OCOC)c1CN.Cl [Example 9, 2,6-bis(methoxymethoxy)benzylamine hydrochloride] | 22000 ± 60
CCOc1cccc(OCC)c1CN.Cl [Example 1, 2,6-diethoxybenzylamine hydrochloride] | 6400 ± 0.5
CCCc1cccc(CCC)c1CN.Cl [Example 12, 2,6-di-n-propylbenzylamine hydrochloride] | 1000
Cl.NCc1ccccc1O [Example 5, 2-hydroxybenzylamine hydrochloride] | > 1000

Each compound was assayed on Pure BAO obtained from swine plasma (assay: Reversibility of BAO inhibition by dialysis). Details: dialysis of the solution.
Type: biochemical
Design: key: reversible inhibition; irreversible inhibition; pr: partially reversible inhibition
Source text: as §1
The reversibility of the effect was evaluated showing that the inhibition caused by a certain concentration of the inhibitor (for instance the IC50 value) would be reverted by dialysis of the solution.

SMILES | BAO: reversibility of the inhibition
Cl.NCc1c(OCCO)cccc1OCCO [Example 13, 2,6-bis(hydroxyethoxy)benzylamine hydrochloride] | pr
CCCOc1cccc(OCCC)c1CN.Cl [Example 2, 2,6-di(n-propoxy)benzylamine hydrochloride] | pr
COc1cccc(OC)c1CN.Cl [Example 7, 2,6-di-methoxybenzylamine hydrochloride] | r
COCOc1cccc(OCOC)c1CN.Cl [Example 9, 2,6-bis(methoxymethoxy)benzylamine hydrochloride] | r
CCOc1cccc(OCC)c1CN.Cl [Example 1, 2,6-diethoxybenzylamine hydrochloride] | pr
CCCc1cccc(CCC)c1CN.Cl [Example 12, 2,6-di-n-propylbenzylamine hydrochloride] | r

Each compound was assayed on MAO (rat liver mitochondria) (assay: Compound as the substrate of MAO (production of H2O2)). Details: 37° C., air.
Type: biochemical
Design: key: the compound is the substrate; ns: the compound is not the substrate
Method: as §4, §1

SMILES | MAO: compound as the substrate
Cl.NCc1c(OCCO)cccc1OCCO [Example 13, 2,6-bis(hydroxyethoxy)benzylamine hydrochloride] | ns
CCCOc1cccc(OCCC)c1CN.Cl [Example 2, 2,6-di(n-propoxy)benzylamine hydrochloride] | s
COc1cccc(OC)c1CN.Cl [Example 7, 2,6-di-methoxybenzylamine hydrochloride] | s weak
COCOc1cccc(OCOC)c1CN.Cl [Example 9, 2,6-bis(methoxymethoxy)benzylamine hydrochloride] | ns
CCOc1cccc(OCC)c1CN.Cl [Example 1, 2,6-diethoxybenzylamine hydrochloride] | ns
CCCc1cccc(CCC)c1CN.Cl [Example 12, 2,6-di-n-propylbenzylamine hydrochloride] | s
Cl.NCc1ccccc1O [Example 5, 2-hydroxybenzylamine hydrochloride] | ns

Each compound was assayed against T1, DAO from swine kidney (assay: Compound as the substrate of DAO (production of H2O2)). Details: 37° C., air.
Type: biochemical
Design: key: the compound is the substrate; ns: the compound is not the substrate
Method: as §4, §1

SMILES | DAO: compound as the substrate
Cl.NCc1c(OCCO)cccc1OCCO [Example 13, 2,6-bis(hydroxyethoxy)benzylamine hydrochloride] | s
CCCOc1cccc(OCCC)c1CN.Cl [Example 2, 2,6-di(n-propoxy)benzylamine hydrochloride] | s weak
COc1cccc(OC)c1CN.Cl [Example 7, 2,6-di-methoxybenzylamine hydrochloride] | s
COCOc1cccc(OCOC)c1CN.Cl [Example 9, 2,6-bis(methoxymethoxy)benzylamine hydrochloride] | s
CCOc1cccc(OCC)c1CN.Cl [Example 1, 2,6-diethoxybenzylamine hydrochloride] | s
CCCc1cccc(CCC)c1CN.Cl [Example 12, 2,6-di-n-propylbenzylamine hydrochloride] | s weak
Cl.NCc1ccccc1O [Example 5, 2-hydroxybenzylamine hydrochloride] | s

These compounds were tested against Pure BAO obtained from swine plasma (assay: Inhibition of benzylaminoxidase (BAO), isotopic procedure with 14C-benzylamine). Details: 30 minutes pre-incubation; 14C-benzylamine 1,7 mM (saturating); mean ± s.e.
Type: biochemical
Method: The quantitative determination of benzylaminoxidases (BAO's) is carried out by the isotopic procedure disclosed by F. Buffoni and G. Ignesti (Biochem. J.; 145, 369 (1975)) employing ^14 C-benzylamine as the substrate at the final concentration of 1,7 mM.
as §1, §2, §3

SMILES | IC50 [µM]
Cl.NCc1c(OCCO)cccc1OCCO [Example 13, 2,6-bis(hydroxyethoxy)benzylamine hydrochloride] | 2.6
COc1cccc(OC)c1CN.Cl [Example 7, 2,6-di-methoxybenzylamine hydrochloride] | 120
COCOc1cccc(OCOC)c1CN.Cl [Example 9, 2,6-bis(methoxymethoxy)benzylamine hydrochloride] | 0.95
CCOc1cccc(OCC)c1CN.Cl [Example 1, 2,6-diethoxybenzylamine hydrochloride] | 0.18
Cl.NCc1ccccc1O [Example 5, 2-hydroxybenzylamine hydrochloride] | 1000

Same assay, conditions: compounds already known in the literature, prepared again

SMILES | Activity as inhibitors of BAO (in words)
COc1cccc(OC)c1CN.Cl [Example 7, 2,6-di-methoxybenzylamine hydrochloride] | active indeed, though at a low degree
Cl.NCc1ccccc1O [Example 5, 2-hydroxybenzylamine hydrochloride] | active indeed, though at a low degree

— patent US4888283A, “Selective inhibitors of benzylaminoxidases with respect to other aminoxidases” (priority 1985, dated 1989)
